Measured values published in ChEMBL document CHEMBL6177938, “Semisynthetic phytochemicals in cancer treatment: a medicinal chemistry perspective” (RSC Med Chem, 2024).
Values belong to the compound of their own block, whether it stands above or below them.

Assays:
Cytochrome P450 1A1 = Cytochrome P450 1A1 (Homo sapiens, UniProt P04798); test: Inhibition of CYP1A1 (unknown origin) expressed in HEK293 cells; assay type: ADME, cell-based
[1] = Selectivity index, ratio of IC50 for inhibition of CYP1B1 (unknown origin) to IC50 for inhibition of CYP1A1 (unknown origin)
SK-BR-3 = test: Antiproliferative activity against human SK-BR-3 cells assessed as reduction in cell viability incubated for 24 hrs by alamar blue assay; assay type: functional, cell-based; conditions: SK-BR-3, 24 h
SK-OV-3 = test: Antiproliferative activity against human SK-OV-3 cells assessed as reduction in cell viability incubated for 48 hrs by MTT assay; assay type: functional, cell-based; conditions: SK-OV-3, 48 h
A2780 = test: Antiproliferative activity against human A2780 cells assessed as reduction in cell viability incubated for 48 hrs by MTT assay; assay type: functional, cell-based; conditions: A2780, 48 h
KYSE-70 cell line = test: Cytotoxicity against human KYSE-70 cells assessed as reduction in cell viability incubated for 72 hrs by MTS assay; assay type: functional, cell-based; conditions: KYSE-70, 72 h
KYSE-270 = test: Cytotoxicity against human KYSE-270 cells assessed as reduction in cell viability incubated for 72 hrs by MTS assay; assay type: functional, cell-based; conditions: KYSE-270, 72 h
MCF7 [2] = test: Cytotoxicity against human MCF7 cells assessed as reduction in cell growth incubated for 72 hrs by MTT assay; assay type: functional, cell-based; conditions: MCF7, 72 h
HCT-116 [3] = test: Cytotoxicity against human HCT-116 cells assessed as reduction in cell viability incubated for 48 hrs by SRB assay; assay type: functional, cell-based; conditions: HCT-116, 48 h
MCF7 [4] = test: Cytotoxicity against human MCF7 cells assessed as reduction in cell viability incubated for 48 hrs by MTT assay; assay type: functional, cell-based; conditions: MCF7, 48 h
MCF7 [5] = test: Inhibition of colony formation in human MCF7 cells at 100 microM measured after 72 hrs by crystal violet staining based analysis relative to control; assay type: functional
MCF7 [6] = test: Cytotoxicity against human MCF7 cells assessed as reduction in cell viability; assay type: functional, cell-based
Calu-3 = test: Cytotoxicity against human Calu-3 cells assessed as reduction in cell viability; assay type: functional, cell-based
HeLa [7] = test: Antiproliferative activity against human HeLa cells assessed as reduction in cell viability incubated for 72 hrs by MTT assay; assay type: functional, cell-based
HCT-116 [8] = test: Antiproliferative activity against human HCT-116 cells assessed as reduction in cell viability incubated for 24 hrs by MTT assay; assay type: functional, cell-based; conditions: HCT-116, 24 h
MCF7 [9] = test: Cytotoxicity against human MCF7 cells; assay type: functional, cell-based
HepG2 [10] = test: Cytotoxicity against human HepG2 cells; assay type: functional, cell-based
A549 [11] = test: Cytotoxicity against human A549 cells assessed as reduction in cell growth incubated for 48 hrs by MTT assay; assay type: functional, cell-based; conditions: A549, 48 h
HeLa [12] = test: Antiproliferative activity against human Hela cells assessed as reduction in cell viability measured for 48 hrs by WST-1 assay; assay type: functional, cell-based
A549 [13] = test: Antiproliferative activity against human A549 cells assessed as reduction in cell viability measured for 48 hrs by WST-1 assay; assay type: functional, cell-based; conditions: A549, 48 h
HT-29 = test: Antiproliferative activity against human HT-29 cells assessed as reduction in cell viability measured for 48 hrs by WST-1 assay; assay type: functional, cell-based; conditions: HT-29, 48 h
MCF7 [14] = test: Antiproliferative activity against human MCF7 cells assessed as reduction in cell viability measured for 48 hrs by WST-1 assay; assay type: functional, cell-based; conditions: MCF7, 48 h
MOLT-4 = test: Antiproliferative activity against human MOLT-4 cells assessed as reduction in cell viability measured for 48 hrs by WST-1 assay; assay type: functional, cell-based; conditions: MOLT-4, 48 h
MeWo = test: Antiproliferative activity against human MeWo cells assessed as reduction in cell growth incubated for 48 hrs by MTT assay; assay type: functional, cell-based
A-375 = test: Antiproliferative activity against human A-375 cells assessed as reduction in cell growth incubated for 48 hrs by MTT assay; assay type: functional, cell-based; conditions: A-375, 48 h
HL-60 [15] = test: Growth inhibition of human HL-60 cells; assay type: functional
PC-3 = test: Cytotoxicity against human PC-3 cells assessed as reduction in cell growth incubated for 72 hrs by MTT assay; assay type: functional, cell-based; conditions: PC-3, 72 h
SF-295 = test: Cytotoxicity against human SF-295 cells assessed as reduction in cell growth incubated for 72 hrs by MTT assay; assay type: functional, cell-based; conditions: SF-295, 72 h
HepG2 [16] = test: Cytotoxicity against human HepG2 cells assessed as reduction in cell growth incubated for 72 hrs by MTT assay; assay type: functional, cell-based; conditions: HepG2, 72 h
HCT-116 [17] = test: Cytotoxicity against human HCT-116 cells assessed as reduction in cell growth incubated for 72 hrs by MTT assay; assay type: functional, cell-based; conditions: HCT-116, 72 h
HL-60 [18] = test: Cytotoxicity against human HL-60 cells assessed as reduction in cell growth incubated for 72 hrs by MTT assay; assay type: functional, cell-based; conditions: HL-60, 72 h
SK-MEL-28 = test: Cytotoxicity against human SK-MEL-28 cells assessed as reduction in cell growth incubated for 24 hrs by MTT assay; assay type: functional

Chain of Cytochrome P450 1A1 (P04798 whole entry): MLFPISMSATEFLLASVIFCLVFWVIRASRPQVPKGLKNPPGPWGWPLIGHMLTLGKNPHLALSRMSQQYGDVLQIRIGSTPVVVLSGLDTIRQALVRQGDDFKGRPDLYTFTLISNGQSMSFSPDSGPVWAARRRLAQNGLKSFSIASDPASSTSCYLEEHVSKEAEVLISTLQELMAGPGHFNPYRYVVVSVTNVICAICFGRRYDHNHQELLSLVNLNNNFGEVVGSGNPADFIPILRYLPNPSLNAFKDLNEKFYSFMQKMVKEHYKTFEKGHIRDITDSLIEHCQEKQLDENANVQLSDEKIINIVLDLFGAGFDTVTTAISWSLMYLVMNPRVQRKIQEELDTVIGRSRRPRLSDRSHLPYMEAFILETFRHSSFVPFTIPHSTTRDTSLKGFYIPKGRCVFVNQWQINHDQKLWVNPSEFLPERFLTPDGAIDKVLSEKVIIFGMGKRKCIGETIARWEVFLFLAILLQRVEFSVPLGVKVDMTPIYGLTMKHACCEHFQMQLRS

- IC50 (Cytochrome P450 1A1): 140 nM
- Ratio IC50 [1]: 170
Structure (SMILES): COc1c2occc2c(OC)c2c(=O)cc(-c3ccc(F)c(Br)c3)oc12

- IC50 (SK-BR-3): 6.3 µM
Structure (SMILES): COc1ccc2c(CCCc3ccc(Cl)cc3Cl)c3[n+](cc2c1OC)CCc1cc2c(cc1-3)OCO2

- IC50 (SK-OV-3): 470 nM
- IC50 (A2780): 870 nM
Structure (SMILES): CC1=C(O)C(=O)C=C2C1=CC=C1[C@@]2(C)CC[C@@]2(C)[C@@H]3C[C@](C)(C(=O)N4CCN(C(C)C)CC4)CC[C@]3(C)CC[C@]12C

Structure (SMILES): CCCCCCCCCCCC(=O)O[C@H]1C(C)=C[C@]23C(=O)[C@@H](C=C(CO)[C@@H](O)[C@]12O)[C@H]1[C@@H](C[C@H]3C)C1(C)C
- IC50 (KYSE-70 cell line): 3.58 µM
- IC50 (KYSE-270): 1880 nM

Structure (SMILES): C[C@@H]1CC[C@H]2[C@@H](C)C(OC(=O)CCC(=O)O)O[C@@H]3O[C@@]4(C)CC[C@@H]1[C@]32OO4 (single isomer, unassigned)
- IC50 (MCF7 [2]): 43.8 µM

Structure (SMILES): C[C@H]1CC[C@@H]2[C@@H](OC(=O)[C@]23C[C@H]2CCCN2C32C(=O)c3ccccc3C2=O)[C@]2(C)C(=O)C=C[C@@]12O
- IC50 (HCT-116 [3]): 5 µM

Structure (SMILES): C/C=C/c1ccc(OCc2ccc(Cl)cc2)c(OC)c1
- IC50 (MCF7 [4]): 6.59 µM
- inhibition at 100 µM (MCF7 [5]): 87.5%

Structure (SMILES): Cn1c2ccccc2c(=O)c2c(OCCCOc3cc4c(c5c3c(=O)c3ccccc3n5C)C=CC(C)(C)O4)cc3c(c21)C=CC(C)(C)O3
- IC50 (MCF7 [6]): 13.2 µM
- IC50 (Calu-3): 4.49 µM

- IC50 (HeLa [7]): 250 µM
Structure (SMILES): CCNC(=O)CC[C@H](NC(=O)c1cc2cc(Br)ccc2oc1=O)C(=O)OCC

- IC50 (HCT-116 [8]): 480 nM
Structure (SMILES): CN1CCN(CCCOc2cc(-c3oc4cc(O)cc(O)c4c(=O)c3O)ccc2O)CC1

Structure (SMILES): C/C(=N\NC(=O)c1ccc(O)cc1)c1ccc(NC(=O)Cn2c(=O)c3c(ncn3C)n(C)c2=O)cc1
- IC50 (MCF7 [9]): 420 nM
- IC50 (HepG2 [10]): 220 nM

Structure (SMILES): COc1ccc(CC(=O)OCC2=CC[C@@H]3[C@](C)(CO)[C@H](O)CC[C@@]3(C)[C@@H]2/C=C/C2=CCOC2=O)cc1
- IC50 (A549 [11]): 3.5 µM

- IC50 (HeLa [12]): 700 nM
- IC50 (A549 [13]): 800 nM
- IC50 (HT-29): 1400 nM
- IC50 (MCF7 [14]): 600 nM
- IC50 (MOLT-4): 1900 nM
Structure (SMILES): COc1c2c(cc3c1OCO3)[C@]13C=C[C@H](OC)C[C@H]1N(C2)C[C@H]3OC(=O)c1ccc(Cl)c([N+](=O)[O-])c1

- IC50 (A-375): 100 µM
Structure (SMILES): CC1(C)CC[C@]2(C(=O)N3CCOCC3)CC[C@]3(C)C(=CC[C@@H]4[C@@]5(C)CC/C(=N\OC(=O)CBr)C(C)(C)[C@@H]5CC[C@]43C)[C@@H]2C1
- IC50 (MeWo): 100 µM

- GI50 (HL-60 [15]): 2640 nM
Structure (SMILES): COc1cc(/C=C/c2cc(/C=C/c3ccc(O)c(OC)c3)n(-c3c(Cl)cccc3Cl)c(=O)n2)ccc1O

Structure (SMILES): CCC(=O)OCC(=O)[C@@]1(C)CC[C@H]2C(=C[C@@H]3OC(=O)[C@@]4(C)[C@@H]3[C@]23CC[C@]4(O)OC3)C1
- IC50 (PC-3): 3.2 µM
- IC50 (SF-295): 3.59 µM
- IC50 (HepG2 [16]): 13.5 µM
- IC50 (HCT-116 [17]): 3.62 µM
- IC50 (HL-60 [18]): 3.14 µM

Structure (SMILES): CC(=O)OCC1=C2[C@@H](OC(C)=O)C[C@@](C)(OC(C)=O)C(=O)CC[C@@]3(C)O[C@@H]3[C@@]2(OC(C)=O)OC1=O
- CC50 (SK-MEL-28): 3.1 µM
